Experimental data taken from US9763445B2, “Safened herbicidal compositions comprising a pyridine carboxylic acid herbicide” (Dow AgroSciences, LLC, priority 2014, dated 2017).
Read-outs that look alike come from different tables or passages of the source.

Columns and labels:
spring wheat (TRZAS) = assay: Postemergence greenhouse trial, % visual injury on spring wheat; type: in vivo, Triticum aestivum
Method in brief: (§1)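 Injury was scored visually (0 = none, 100 = complete kill) 20–22 d after track-sprayer application at 187 L/ha, compared with solvent-sprayed controls. Test plants at the 2–3 true leaf stage; herbicide (g ae/ha) plus cloquintocet-mexyl safener (g ai/ha) in crop-oil-containing spray; expected mixture response by Colby.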

pigweed (AMARE) = assay: Postemergence greenhouse trial, % visual injury on pigweed; type: in vivo, Amaranthus retroflexus
Method in brief: as §1

winter rape (BRSNW) = assay: Postemergence greenhouse trial, % visual injury on winter rape; type: in vivo, Brassica napus
Method in brief: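 Visual injury, 0 (none) to 100 (complete kill), rated 20-22 d after overhead track-sprayer application at 187 L/ha; Colby's equation gave expected mixture responses. Herbicide (g ae/ha) and cloquintocet-mexyl safener (g ai/ha) diluted in aqueous 1.5% v/v Agri-dex, applied to weeds at 2–3 true leaves.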

kochia (KCHSC) = assay: Postemergence greenhouse trial, % visual injury on kochia; type: in vivo, Kochia scoparia
Method in brief: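 Herbicide rates g ae/ha, safener (cloquintocet-mexyl) rates g ai/ha; spray carrier 1.5% v/v crop oil concentrate, 187 L/ha, 2nd–3rd leaf stage. Rating: visual % injury at 20-22 d.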

Russian thistle (SASKR) = assay: Postemergence greenhouse trial, % visual injury on Russian thistle; type: in vivo, Salsola kali
[1] = Amaranthus retroflexus, post-emergence, alone, 35 g/ha, read-out: % visual injury, Ob
[2] = Brassica napus, post-emergence, alone, 35 g/ha, read-out: % visual injury, Ob

Nc1c(F)c(-c2ccc3cc[nH]c3c2F)nc(C(=O)O)c1Cl [compound 1]
% visual injury, Ob (spring wheat (TRZAS); alone, 4.375 g/ha): 13% | % visual injury, Ob (spring wheat (TRZAS); alone, 8.75 g/ha): 16% | % visual injury, Ob (spring wheat (TRZAS); alone, 17.5 g/ha): 31% | % visual injury, Ob (spring wheat (TRZAS); alone, 35 g/ha): 39% | % visual injury, Ob (spring wheat (TRZAS); alone, 70 g/ha): 51% | % visual injury, observed (Ob) (pigweed (AMARE); AMARE, compound 1 alone 20 g/ha): 100% | % visual injury, observed (Ob) (pigweed (AMARE); AMARE, compound 1 alone 40 g/ha): 100% | pest or weed control at 4.375 g/ha (pigweed (AMARE); Amaranthus retroflexus, post-emergence, alone, 4.375 g/ha, read-out: % visual injury, Ob): 81% | pest or weed control at 8.75 g/ha (pigweed (AMARE); Amaranthus retroflexus, post-emergence, alone, 8.75 g/ha, read-out: % visual injury, Ob): 91% | pest or weed control at 17.5 g/ha (pigweed (AMARE); Amaranthus retroflexus, post-emergence, alone, 17.5 g/ha, read-out: % visual injury, Ob): 99% | pest or weed control at 35 g/ha (pigweed (AMARE); [1]): 100% | pest or weed control at 70 g/ha (pigweed (AMARE); Amaranthus retroflexus, post-emergence, alone, 70 g/ha, read-out: % visual injury, Ob): 100% | % visual injury, Δ (pigweed (AMARE); alone, 35 g/ha): 0% | plant injury at 4.375 g/ha (winter rape (BRSNW); Brassica napus, post-emergence, alone, 4.375 g/ha, read-out: % visual injury, Ob): 79% | plant injury at 8.75 g/ha (winter rape (BRSNW); Brassica napus, post-emergence, alone, 8.75 g/ha, read-out: % visual injury, Ob): 84% | plant injury at 17.5 g/ha (winter rape (BRSNW); Brassica napus, post-emergence, alone, 17.5 g/ha, read-out: % visual injury, Ob): 96% | plant injury at 35 g/ha (winter rape (BRSNW); [2]): 99% | plant injury at 70 g/ha (winter rape (BRSNW); Brassica napus, post-emergence, alone, 70 g/ha, read-out: % visual injury, Ob): 100% | pest or weed control at 4.375 g/ha (kochia (KCHSC); Bassia scoparia, post-emergence, alone, 4.375 g/ha, read-out: % visual injury, Ob): 67% | pest or weed control at 8.75 g/ha (kochia (KCHSC); Bassia scoparia, post-emergence, alone, 8.75 g/ha, read-out: % visual injury, Ob): 72% | pest or weed control at 17.5 g/ha (kochia (KCHSC); Bassia scoparia, post-emergence, alone, 17.5 g/ha, read-out: % visual injury, Ob): 93% | pest or weed control at 35 g/ha (kochia (KCHSC); Bassia scoparia, post-emergence, alone, 35 g/ha, read-out: % visual injury, Ob): 92% | pest or weed control at 70 g/ha (kochia (KCHSC); Bassia scoparia, post-emergence, alone, 70 g/ha, read-out: % visual injury, Ob): 97% | % visual injury, Ob (Russian thistle (SASKR); alone, 4.375 g/ha): 66% | % visual injury, Ob (Russian thistle (SASKR); alone, 8.75 g/ha): 70% | % visual injury, Ob (Russian thistle (SASKR); alone, 17.5 g/ha): 82% | % visual injury, Ob (Russian thistle (SASKR); alone, 35 g/ha): 90% | % visual injury, Ob (Russian thistle (SASKR); alone, 70 g/ha): 91%

Nc1c(F)c(-c2ccc3cc[nH]c3c2F)nc(C(=O)OCc2ccccc2)c1Cl [compound 2]
% visual injury, Ob (spring wheat (TRZAS); alone, 35 g/ha): 15% | % visual injury, observed (Ob) (pigweed (AMARE); AMARE, compound 2 4.380 + CQC-m 0 g/ha): 80% | % visual injury, observed (Ob) (pigweed (AMARE); AMARE, compound 2 8.75 + CQC-m 0 g/ha): 95% | % visual injury, observed (Ob) (pigweed (AMARE); AMARE, compound 2 17.5 + CQC-m 0 g/ha): 100% | pest or weed control at 35 g/ha (pigweed (AMARE); [1]): 100% | % visual injury, observed (Ob) (winter rape (BRSNW); BRSNW, compound 2 4.380 + CQC-m 0 g/ha): 84% | % visual injury, observed (Ob) (winter rape (BRSNW); BRSNW, compound 2 8.75 + CQC-m 0 g/ha): 88% | % visual injury, observed (Ob) (winter rape (BRSNW); BRSNW, compound 2 17.5 + CQC-m 0 g/ha): 55% | % visual injury, observed (Ob) (winter rape (BRSNW); BRSNW, compound 2 35 + CQC-m 0 g/ha): 100% | % visual injury, observed (Ob) (winter rape (BRSNW); BRSNW, compound 2 70 + CQC-m 0 g/ha): 100% | plant injury at 35 g/ha (winter rape (BRSNW); [2]): 100% | % visual injury, observed (Ob) (kochia (KCHSC); KCHSC, compound 2 4.380 + CQC-m 0 g/ha): 93% | % visual injury, observed (Ob) (kochia (KCHSC); KCHSC, compound 2 8.75 + CQC-m 0 g/ha): 95% | % visual injury, observed (Ob) (kochia (KCHSC); KCHSC, compound 2 17.5 + CQC-m 0 g/ha): 98% | % visual injury, observed (Ob) (kochia (KCHSC); KCHSC, compound 2 35 + CQC-m 0 g/ha): 99% | % visual injury, observed (Ob) (kochia (KCHSC); KCHSC, compound 2 70 + CQC-m 0 g/ha): 100% | % visual injury, observed (Ob) (kochia (KCHSC); KCHSC, compound 2 140 + CQC-m 0 g/ha): 95% | % visual injury, observed (Ob) (Russian thistle (SASKR); SASKR, compound 2 4.380 + CQC-m 0 g/ha): 75% | % visual injury, observed (Ob) (Russian thistle (SASKR); SASKR, compound 2 8.75 + CQC-m 0 g/ha): 85% | % visual injury, observed (Ob) (Russian thistle (SASKR); SASKR, compound 2 17.5 + CQC-m 0 g/ha): 89% | % visual injury, observed (Ob) (Russian thistle (SASKR); SASKR, compound 2 35 + CQC-m 0 g/ha): 92% | % visual injury, observed (Ob) (Russian thistle (SASKR); SASKR, compound 2 70 + CQC-m 0 g/ha): 92%

CCCCOC(=O)c1nc(-c2ccc3cc[nH]c3c2F)c(F)c(N)c1Cl [compound 9]
% visual injury, Ob (spring wheat (TRZAS); TRZAS, compound 4.380 g/ha, CQC-m 0): 10% | % visual injury, Ob (spring wheat (TRZAS); TRZAS, compound 8.75 g/ha, CQC-m 0): 25% | % visual injury, Ob (spring wheat (TRZAS); TRZAS, compound 17.5 g/ha, CQC-m 0): 30% | % visual injury, Ob (spring wheat (TRZAS); TRZAS, compound 35 g/ha, CQC-m 0): 50% | % visual injury, Ob (spring wheat (TRZAS); TRZAS, compound 70 g/ha, CQC-m 0): 60% | pest or weed control at 4.38 g/ha (pigweed (AMARE); Amaranthus retroflexus, post-emergence, AMARE, compound 4.380 g/ha, CQC-m 0, read-out: % visual injury, Ob): 10% | pest or weed control at 8.75 g/ha (pigweed (AMARE); Amaranthus retroflexus, post-emergence, AMARE, compound 8.75 g/ha, CQC-m 0, read-out: % visual injury, Ob): 20% | pest or weed control at 17.5 g/ha (pigweed (AMARE); Amaranthus retroflexus, post-emergence, AMARE, compound 17.5 g/ha, CQC-m 0, read-out: % visual injury, Ob): 50% | pest or weed control at 70 g/ha (pigweed (AMARE); Amaranthus retroflexus, post-emergence, AMARE, compound 70 g/ha, CQC-m 0, read-out: % visual injury, Ob): 100% | plant injury at 4.38 g/ha (winter rape (BRSNW); Brassica napus, post-emergence, BRSNW, compound 4.380 g/ha, CQC-m 0, read-out: % visual injury, Ob): 60% | plant injury at 8.75 g/ha (winter rape (BRSNW); Brassica napus, post-emergence, BRSNW, compound 8.75 g/ha, CQC-m 0, read-out: % visual injury, Ob): 60% | plant injury at 17.5 g/ha (winter rape (BRSNW); Brassica napus, post-emergence, BRSNW, compound 17.5 g/ha, CQC-m 0, read-out: % visual injury, Ob): 90% | plant injury at 35 g/ha (winter rape (BRSNW); Brassica napus, post-emergence, BRSNW, compound 35 g/ha, CQC-m 0, read-out: % visual injury, Ob): 98% | plant injury at 70 g/ha (winter rape (BRSNW); Brassica napus, post-emergence, BRSNW, compound 70 g/ha, CQC-m 0, read-out: % visual injury, Ob): 100% | pest or weed control at 4.38 g/ha (kochia (KCHSC); Bassia scoparia, post-emergence, KCHSC, compound 4.380 g/ha, CQC-m 0, read-out: % visual injury, Ob): 60% | pest or weed control at 8.75 g/ha (kochia (KCHSC); Bassia scoparia, post-emergence, KCHSC, compound 8.75 g/ha, CQC-m 0, read-out: % visual injury, Ob): 60% | pest or weed control at 17.5 g/ha (kochia (KCHSC); Bassia scoparia, post-emergence, KCHSC, compound 17.5 g/ha, CQC-m 0, read-out: % visual injury, Ob): 85% | pest or weed control at 35 g/ha (kochia (KCHSC); Bassia scoparia, post-emergence, KCHSC, compound 35 g/ha, CQC-m 0, read-out: % visual injury, Ob): 100% | pest or weed control at 70 g/ha (kochia (KCHSC); Bassia scoparia, post-emergence, KCHSC, compound 70 g/ha, CQC-m 0, read-out: % visual injury, Ob): 100% | % visual injury, Ob (Russian thistle (SASKR); SASKR, compound 4.380 g/ha, CQC-m 0): 65% | % visual injury, Ob (Russian thistle (SASKR); SASKR, compound 8.75 g/ha, CQC-m 0): 70% | % visual injury, Ob (Russian thistle (SASKR); SASKR, compound 17.5 g/ha, CQC-m 0): 80% | % visual injury, Ob (Russian thistle (SASKR); SASKR, compound 35 g/ha, CQC-m 0): 85% | % visual injury, Ob (Russian thistle (SASKR); SASKR, compound 70 g/ha, CQC-m 0): 87%
